Data set [1] can be described thus: Example 5: 1-MCP headspace release versus wt-% 1-MCP/c/α-CD and time. The note with it: 5 cm x 10 cm, 250 mL bottle, water injected, average. The data set is classed as physicochemical. How it is done: Using a razor blade, six 5 cm×10 cm rectangles were cut from the coated portions of 20 cm by 20 cm sheets prepared as in Example 3 and having 1.0 wt-%, 2.0 wt-% and 4.0 wt-% 1-MCP/c/α-CD, and the coated rectangles were cured according to the technique of Example 2. The rectangles were individually placed in 250 mL serum bottles. The bottles were sealed with TEFLON® faced silicone septa. Then […] of deionized water was injected into each bottle. […] Bottle headspace was analyzed at 4, 8, 24 and 48 hours after the injection of water, using the technique of Example 3. The results are provided in Table 4 and FIG. 4 and give the average headspace concentration and standard deviation for the different wt-% 1-MCP/c/α-CD coatings as a function of time.

Data set [2] in a line: Example 10: 1-MCP headspace release from inkjet printed multilayer and monolayer films. To be noted: 250 mL bottle, 100 μL water. The data set is classed as physicochemical. An excerpt:
The ink containing 4 wt-% 1-MCP/c/α-CD from Example 9 was loaded back into the previously emptied cartridge. After refilling the cartridge, it was installed into a HP Inkjet 1600C printer (obtained from the Hewlett-Packard Company of Palo Alto, Calif.) and the calibration or head cleaning function was run. A medium density, black cross-hatch pattern obtained from Microsoft EXCEL software program 2003 (obtained from the Microsoft Corporation of Redman, Wash.) was used to format the entire printable page. The EXCEL pattern image was printed onto 3M, CG3460 Transparency Film (polyester film 120 microns thick for HP inkjet printers; obtained from the 3M Company of St. Paul, Minn.) using the dried, milled ink containing 4 wt-% 1-MCP/c/α-CD of Example 9. Immediately after printing, the printed side of the transparency film was overlaid with a 25 μm polyethylene film and then passed by hand about 10 cm beneath a medium pressure mercury arc lamp operating at 79 watts per cm for 3 seconds exposure to the lamp, with the polyethylene side facing the lamp. The methodology simulates a multilayer flexible-package where the inner surface of an outer, transparent, layer of the multilayer flexible material was printed (referred to as reverse printing). The printed surface was then laminated to other layers. The outside layer itself serves to protect the ink from abuse.
The following technique was designed to measure the permeability of 1-MCP, which was released from the reverse inkjet printed 3M Transparency Film, through PE film as the “inner layer” of a multilayer produce package. In a multilayer produce package, as the humidity rises inside the package by respiration of fresh agricultural products, the water vapor reaches a concentration that allows it to diffuse to the outside of the package. In this example, water also diffuses through the ink layer containing 1-MCP/c/α-CD. The reverse printed ink on the PET film releases 1-MCP which diffuses through the PE film into the interior of package (headspace) under a gradient of low 1-MCP concentration inside the bottle headspace and high 1-MCP concentration within the multilayer structure.
Using a paper cutter, a 5.5 cm by 16 cm rectangle (88 cm^2) was cut from the multilayer structure of the printed, cured ink on the PET sheet overlaid with PE. The rectangle was placed in a 250 mL serum bottle. The bottle was then sealed with a TEFLON® faced silicone septa. Then 100 μL of deionized water was injected into the bottle. […] Bottle headspace was analyzed at 0.17, 0.5, 1, 2, 4, and 24 hours after the injection of water using the technique employed in Example 3. The results in Table 8 illustrate 1-MCP headspace concentration as a function of time for the “multilayer” film.
A second piece of PET transparency film was printed as in Example 9 except that the transparency film was not covered with PE film; the printed ImTech UVBLK Series 912 ink was cured on the PET film surface using a medium pressure mercury arc lamp operating at 79 watts per cm in the same manner as for Example 9. Then, using a paper cutter, a 1.2 cm by 16 cm rectangle (19 cm^2) was cut from the sheet. The rectangle was placed in 250 mL serum bottle. The bottle was then sealed with a TEFLON® faced silicone septa. Then 100 μL of deionized water was injected into the bottle. […] Bottle headspace was analyzed at 0.17, 0.5, 1, 2, 4, and 24 hours after the injection of water using the technique employed in Example 3. The headspace concentration of 1-MCP as a function of time is also reported in Table 9 for the “monolayer” film.

Structures are written as SMILES.

As for `CC1=CC1` [1-MCP, 1-methylcyclopropene], the “1-MCP in Headspace” value in data set [1] (1 wt-% 1-MCP/c/α-CD coated, 4 hours) stood at 0.96 ppm-v/v; in data set [1] (1 wt-% 1-MCP/c/α-CD coated, 8 hours) it was 2.0 ppm-v/v; in data set [1] (1 wt-% 1-MCP/c/α-CD coated, 24 hours), 3.6 ppm-v/v; in data set [1] (1 wt-% 1-MCP/c/α-CD coated, 48 hours) it was 4.0 ppm-v/v; in data set [1] (2 wt-% 1-MCP/c/α-CD coated, 4 hours), 3.5 ppm-v/v; in data set [1] (2 wt-% 1-MCP/c/α-CD coated, 8 hours) it was 7.8 ppm-v/v. Also, the “1-MCP in Headspace” value was determined as 17.8 ppm-v/v in data set [1] (2 wt-% 1-MCP/c/α-CD coated, 24 hours); 21.2 ppm-v/v in data set [1] (2 wt-% 1-MCP/c/α-CD coated, 48 hours); 7.5 ppm-v/v in data set [1] (4 wt-% 1-MCP/c/α-CD coated, 4 hours); 13.5 ppm-v/v in data set [1] (4 wt-% 1-MCP/c/α-CD coated, 8 hours); 24.0 ppm-v/v in data set [1] (4 wt-% 1-MCP/c/α-CD coated, 24 hours); 28.0 ppm-v/v in data set [1] (4 wt-% 1-MCP/c/α-CD coated, 48 hours). For the same compound, the “Headspace concentration of 1-MCP” value in data set [2] (19 cm^2 Monolayer (printed PET, no PE film), 0.17 hours) is 0.50 ppm (v/v); in data set [2] (19 cm^2 Monolayer (printed PET, no PE film), 0.5 hours) it was 0.52 ppm (v/v); in data set [2] (19 cm^2 Monolayer (printed PET, no PE film), 1 hour) it was 0.50 ppm (v/v); in data set [2] (19 cm^2 Monolayer (printed PET, no PE film), 2 hours) it was 0.51 ppm (v/v); in data set [2] (19 cm^2 Monolayer (printed PET, no PE film), 4 hours), 0.52 ppm (v/v); in data set [2] (19 cm^2 Monolayer (printed PET, no PE film), 24 hours) it was 0.49 ppm (v/v). Besides, the “Headspace concentration of 1-MCP” value in data set [2] (88 cm^2 Multilayer (inkjet printed PET overlaid with 25 μm PE), 0.17 hours) was 0.25 ppm (v/v); in data set [2] (88 cm^2 Multilayer (inkjet printed PET overlaid with 25 μm PE), 0.5 hours), 0.46 ppm (v/v); in data set [2] (88 cm^2 Multilayer (inkjet printed PET overlaid with 25 μm PE), 1 hour) it was 1.1 ppm (v/v); in data set [2] (88 cm^2 Multilayer (inkjet printed PET overlaid with 25 μm PE), 2 hours) it was 1.5 ppm (v/v); in data set [2] (88 cm^2 Multilayer (inkjet printed PET overlaid with 25 μm PE), 4 hours), 3.2 ppm (v/v); in data set [2] (88 cm^2 Multilayer (inkjet printed PET overlaid with 25 μm PE), 24 hours), 8.3 ppm (v/v).

The values above are taken from US8414989B2, “Cyclodextrin compositions, articles, and methods” (Cellresin Technologies, LLC, priority 2011, dated 2013).
